These are literature values, as cited in patent US12648914B2, “Injectable sustained release composition and method of using the same for treating inflammation in joints and pain associated therewith” (priority 2013, dated 2026).

What is called EC50 is the midpoint of the concentration-response curve.

The conditions of data set [1]: human subjects, 40 mg.
The conditions of data set [2]: reported, Möllmann et al. 1998, after inhaled administration.

For `CC(C)(C)CC(=O)OCC(=O)[C@@]12OC(C)(C)O[C@@H]1C[C@H]1[C@@H]3CCC4=CC(=O)C=C[C@]4(C)[C@@]3(F)[C@@H](O)C[C@@]12C` [triamcinolone hexacetonide], in data set [1], the “release profile after intra-articular administration” value is given as “significant initial burst followed by rapid decline”.
Consider `CCC(=O)O[C@]1(C(=O)SCF)[C@H](C)C[C@H]2[C@@H]3C[C@H](F)C4=CC(=O)C=C[C@]4(C)[C@@]3(F)[C@@H](O)C[C@@]21C` [fluticasone propionate], for which the EC50 in data set [2] is 0.007 to 0.03 ng/mL.
